# Test results from patent US20230242534A9, “INHIBITORS OF CYCLIN-DEPENDENT KINASE 7 AND USES THEREOF” (Dana-Farber Cancer Institute, Inc., priority 2019, published 2023).
# Like-named read-outs stand apart in the source and are kept apart here.
# What was measured:
# [1] = target: T1, CDK7: cyclin H and MNAT1 (Homo sapiens, UniProt P50613); assay: Invitrogen CDK7 assay (kinase inhibition); assay type: biochemical; details: co-factors cyclin H and MNAT1, read-out: IC50 against CDK7
# T1 construct: purchased Invitrogen
# T1 sequence (P50613 whole entry): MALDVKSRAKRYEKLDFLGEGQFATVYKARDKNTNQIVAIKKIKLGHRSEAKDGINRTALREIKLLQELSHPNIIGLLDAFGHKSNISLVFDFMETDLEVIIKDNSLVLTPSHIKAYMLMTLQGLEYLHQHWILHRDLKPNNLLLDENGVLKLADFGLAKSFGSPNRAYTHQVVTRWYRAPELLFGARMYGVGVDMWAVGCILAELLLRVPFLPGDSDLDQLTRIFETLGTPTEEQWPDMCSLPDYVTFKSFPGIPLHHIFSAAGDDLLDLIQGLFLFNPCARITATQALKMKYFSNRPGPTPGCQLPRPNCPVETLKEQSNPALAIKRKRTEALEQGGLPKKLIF
# T1 sequence (P51946 whole entry partner): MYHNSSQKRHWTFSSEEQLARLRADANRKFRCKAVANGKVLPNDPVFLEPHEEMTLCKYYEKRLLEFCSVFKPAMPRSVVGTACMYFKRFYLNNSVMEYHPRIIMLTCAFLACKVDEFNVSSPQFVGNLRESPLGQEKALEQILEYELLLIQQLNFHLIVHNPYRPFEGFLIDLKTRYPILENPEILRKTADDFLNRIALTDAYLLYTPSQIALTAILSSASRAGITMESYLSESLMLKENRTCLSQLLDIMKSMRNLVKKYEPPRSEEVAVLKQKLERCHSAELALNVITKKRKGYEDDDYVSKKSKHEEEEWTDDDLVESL
# T1 sequence (P51948 whole entry partner): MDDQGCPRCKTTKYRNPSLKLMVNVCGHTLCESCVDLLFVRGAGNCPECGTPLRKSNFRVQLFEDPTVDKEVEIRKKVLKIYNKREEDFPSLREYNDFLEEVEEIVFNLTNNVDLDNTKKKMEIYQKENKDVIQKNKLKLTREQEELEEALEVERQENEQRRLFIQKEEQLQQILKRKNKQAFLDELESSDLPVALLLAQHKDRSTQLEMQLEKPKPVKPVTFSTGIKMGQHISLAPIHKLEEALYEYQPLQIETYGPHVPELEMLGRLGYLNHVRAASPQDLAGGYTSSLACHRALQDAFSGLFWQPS
# Experimental: Compounds were assayed using Invitrogen CDK7 assay against a variety of kinases. Exemplary results are presented as IC50 values for compounds of the disclosure in Table 1 and for comparator compounds in Table 2. In Tables 1 and 2, “A” represents an IC50 value of less than 100 nM, “B” represents an IC50 value of greater than or equal to 100 nM and less than 1 μM, and “C” represents an IC50 value of greater than or equal to 1 μM. The co-factors used for each kinase in the assays were as follows: CDK7: cyclin H and MNAT1; CDK2: cyclin A; CDK9: cyclin T1.
# [2] = target: T2, SET Human Serotonin Transporter (Homo sapiens, UniProt P31645); assay: 5-HT inhibition assay: Cerep SET Human Serotonin Transporter Binding (Antagonist Radioligand) Assay; details: test compound 10 μM, ligand [3H]imipramine 2 nM, 60 min at RT
# T2 construct: Cerep (Eurofins Discovery Services) 439
# T2 sequence (P31645 whole entry): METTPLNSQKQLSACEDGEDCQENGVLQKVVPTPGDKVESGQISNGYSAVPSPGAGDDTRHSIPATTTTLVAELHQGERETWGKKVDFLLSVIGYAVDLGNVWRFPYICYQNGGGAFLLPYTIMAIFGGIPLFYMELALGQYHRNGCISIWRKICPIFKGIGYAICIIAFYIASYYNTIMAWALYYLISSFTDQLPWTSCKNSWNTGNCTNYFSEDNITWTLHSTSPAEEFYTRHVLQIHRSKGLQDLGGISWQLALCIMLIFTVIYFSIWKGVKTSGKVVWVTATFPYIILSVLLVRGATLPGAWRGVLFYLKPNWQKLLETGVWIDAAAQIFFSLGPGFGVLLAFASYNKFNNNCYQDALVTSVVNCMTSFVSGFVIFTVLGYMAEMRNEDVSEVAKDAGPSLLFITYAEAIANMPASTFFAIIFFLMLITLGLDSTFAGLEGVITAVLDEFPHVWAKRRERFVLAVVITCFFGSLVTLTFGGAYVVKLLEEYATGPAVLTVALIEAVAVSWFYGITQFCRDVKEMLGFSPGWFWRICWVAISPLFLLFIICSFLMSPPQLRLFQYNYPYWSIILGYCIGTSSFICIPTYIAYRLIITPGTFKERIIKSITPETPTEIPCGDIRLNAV
# Experimental: The 5-HT inhibition assay was performed according to the Cerep SET Human Serotonin Transporter Binding (Antagonist Radioligand) Assay, such as the assay described in www.eurofinsdiscoveryservices.com/catalogmanagement/viewitem//439, accessed Jul. 22, 2019. In some experiments, the assay information is as shown below:
# Ligand concentration: 2 nM; Non specific: imipramine (10 μM);
# Incubation: 60 min at RT;
# Control inhibitor: imipramine; and Test compound concentration: 10 μM. Exemplary results are presented as 5-HT % inhibition at 10 μM of compound for compounds of the disclosure in Table 1 and for comparator compounds in Table 2.
# [3] = Table 1, compounds of the disclosure
smiles,measurement,setting,value
C=CC(=O)Nc1cccc(C(=O)Nc2ccc(Nc3n[nH]c4c3CN(C(=O)N[C@H](CN(C)C)c3ccccc3)C4(C)C)cc2)c1 [Compound C-1],IC50,"[1]; Table 2, comparator compounds",< 100 nM
same,inhibition at 10 µM,"[2]; Table 2, comparator compounds",98.3%
C=CC(=O)Nc1ccc(C(=O)Nc2n[nH]c3c2CN(C(=O)N[C@H](CN(C)C)c2ccccc2)C32CC2)cc1 [Compound C-2],IC50,"[1]; Table 2, comparator compounds",< 100 nM
same,inhibition at 10 µM,"[2]; Table 2, comparator compounds",95.3%
C=CC(=O)Nc1cccc(Nc2n[nH]c3c2CN(C(=O)N[C@H](CN(C)C)c2ccccc2)C3(C)C)c1 [Compound C-3],IC50,"[1]; Table 2, comparator compounds",< 100 nM
same,inhibition at 10 µM,"[2]; Table 2, comparator compounds",98.2%
C=CC(=O)Nc1ccc(C(=O)N2CCC(Nc3n[nH]c4c3CN(C(=O)N[C@H](CN(C)C)c3ccccc3)C4(C)C)CC2)cc1 [Compound C-4],IC50,"[1]; Table 2, comparator compounds",< 100 nM
same,inhibition at 10 µM,"[2]; Table 2, comparator compounds",96.4%
C=CC(=O)N1CCC[C@H](C(=O)Nc2n[nH]c3c2CN(C(=O)N[C@H](CN(C)C)c2ccccc2)C3(C)C)C1 [Compound C-5],IC50,"[1]; Table 2, comparator compounds",< 100 nM
same,inhibition at 10 µM,"[2]; Table 2, comparator compounds",94.3%
C=CC(=O)Nc1ccc(C(=O)Nc2cccc(C(=O)Nc3n[nH]c4c3CN(C(=O)N[C@H](CN(C)C)c3ccccc3)C4(C)C)c2)cc1 [Compound C-6],IC50,"[1]; Table 2, comparator compounds",< 100 nM
same,inhibition at 10 µM,"[2]; Table 2, comparator compounds",99.6%
C=CC(=O)Nc1ccc(C(=O)Nc2n[nH]c3c2CN(C(=O)N[C@H](CN(C)C)c2ccccc2)[C@@H]3C(C)C)cc1 [Compound C-7],IC50,"[1]; Table 2, comparator compounds",< 100 nM
same,inhibition at 10 µM,"[2]; Table 2, comparator compounds",74.5%
C=CC(=O)Nc1ccc(C(=O)Nc2cccc(Nc3n[nH]c4c3CN(C(=O)N[C@H](CN(C)C)c3ccccc3)C4(C)C)c2)cc1 [Compound C-8],IC50,"[1]; Table 2, comparator compounds",< 100 nM
same,inhibition at 10 µM,"[2]; Table 2, comparator compounds",98%
C=CC(=O)Nc1ccc(C(=O)Nc2n[nH]c3c2CN(C(=O)N[C@H](CN(C)C)c2ccccc2)C3(C)C)nc1 [Compound C-10],IC50,"[1]; Table 2, comparator compounds",< 100 nM
same,inhibition at 10 µM,"[2]; Table 2, comparator compounds",98.3%
"C=CC(=O)Nc1ccc(C(=O)Nc2nn(C)c3c2CN(C(=O)N[C@H](CN(C)C)c2ccccc2)C3(C)C)cc1 [Compound I-1, (S)-3-(4-acrylamidobenzamido)-N-(2-(dimethylamino)-1-phenylethyl)-1,6,6-trimethyl-4,6-dihydropyrrolo[3,4-c]pyrazole-5(1H)-carboxamide]",IC50,[1]; [3],< 100 nM
same,inhibition at 10 µM,[2]; Table 1,26.8%
"C=CC(=O)Nc1ccc(C(=O)Nc2nn(C(F)F)c3c2CN(C(=O)N[C@H](CN(C)C)c2ccccc2)C3(C)C)cc1 [Compound I-5, (S)-3-(4-acrylamidobenzamido)-1-(difluoromethyl)-N-(2-(dimethylamino)-1-phenylethyl)-6,6-dimethyl-4,6-dihydropyrrolo[3,4-c]pyrazole-5(1H)-carboxamide]",IC50,[1]; [3],< 100 nM
same,inhibition at 10 µM,[2]; Table 1,81.4%
"C=CC(=O)Nc1ccc(C(=O)Nc2nn(C)c3c2CN(C(=O)N[C@H](CN(C)C)c2ccccc2)C3(C)C)nc1 [Compound I-8, (S)-3-(5-acrylamidopicolinamido)-N-(2-(dimethylamino)-1-phenylethyl)-1,6,6-trimethyl-4,6-dihydropyrrolo[3,4-c]pyrazole-5(1H)-carboxamide]",IC50,[1]; [3],100 to 1000 nM
same,inhibition at 10 µM,[2]; Table 1,50.6%
"C=CC(=O)Nc1ccc(C(=O)Nc2nn(C(F)F)c3c2CN(C(=O)N[C@H](CN(C)C)c2ccccc2)C3(C)C)nc1 [Compound I-33, (S)-3-(5-acrylamidopicolinamido)-1-(difluoromethyl)-N-(2-(dimethylamino)-1-phenylethyl)-6,6-dimethyl-4,6-dihydropyrrolo[3,4-c]pyrazole-5(1H)-carboxamide]",IC50,[1]; [3],< 100 nM
same,inhibition at 10 µM,[2]; Table 1,88.8%
C=CC(=O)Nc1ccc(C(=O)Nc2n[nH]c3c2CN(C(=O)N[C@H](CN(C)C)c2ccccc2)C3(C)C)cc1C(F)(F)F [II-2],IC50,"[1]; Table 2, comparator compounds",< 100 nM
same,inhibition at 10 µM,"[2]; Table 2, comparator compounds",98.1%
